Entries after “also recorded” stand apart in the source; their conditions may differ.
Experiments:
hA1AR = biological target: T1, hA1AR (Homo sapiens, UniProt P30542); experiment: Assay of AE (allosteric enhancer) activity: slowing of 125I-ABA dissociation from the A1AR-G protein ternary complex; format: binding; settings: CHO-K1 membranes; for AE Score, %: 0.1 mM final AE, specifically bound 125I-ABA remaining after 10 minutes of dissociation, Mean ± SEM (N = 3); for AE activity (in words): hA1AR
T1 construct: expressed in transfected cells; membranes
T1 sequence (P30542 1-326): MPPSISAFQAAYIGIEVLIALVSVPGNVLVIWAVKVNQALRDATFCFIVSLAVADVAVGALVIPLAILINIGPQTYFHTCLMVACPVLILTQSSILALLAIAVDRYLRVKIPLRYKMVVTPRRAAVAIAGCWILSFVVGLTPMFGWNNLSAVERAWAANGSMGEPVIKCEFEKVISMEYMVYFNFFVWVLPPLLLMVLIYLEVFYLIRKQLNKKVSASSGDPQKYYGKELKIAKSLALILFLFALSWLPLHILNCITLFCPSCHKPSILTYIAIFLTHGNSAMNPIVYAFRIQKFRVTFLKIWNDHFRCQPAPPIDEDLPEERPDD
Description: The allosteric enhancer (AE) activity was studied at the human A1AR (hA1AR) of a panel of compounds consisting of nine 2-amino-3-aroylthiophenes, (3a-i), eight 2-amino-3-benzoyl-4,5-dimethylthiophenes (13a-h), […] 3-aroyl-2-carboxy-4,5-dimethylthiophenes, (17a-e), ten 2-amino-3-benzoyl-5,6-ihydro-4H-cyclopenta[b]thiophenes, (19a-I), fourteen 2-amino-3-benzoyl-4,5,6,7-tetrahyd robenzo-[b]thiophenes, (20a-n), and fifteen 2-amino-3-benzoyl-5,6,7,8-tetrahydro-4H-cyclohepta[b]thiophenes, (21a-o). An in vitro assay employing the A1AR agonist ^125I-N^6-aminobenzyladenosine (^125I-ABA) and membranes from CHO-K1 cells stably expressing the hA1AR measured, as an index of AE activity, the ability of a candidate AE to slow the dissociation of the radioligand from the A1AR-G protein ternary complex.
The assay of AE activity consisted of three phases: formation of the ^125I-ABA-A1AR-G protein ternary complex; binding of the AE to the allosteric site, and dissociation of the complex by adding a combination of an A1AR antagonist (100 μM cyclopentyltheophylline) and 50 µM GTPγS. This procedure detects only AE activity since phase 3 (dissociation) is affected only by the allosteric activity of the test compound and is not affected by competitive antagonist activity. GTPγS is added to accelerate the dissociation process. […] The assay employed membranes from CHO-K1 cells stably expressing the hA1AR. For agonist binding to equilibrium, the incubation mixture consisted of 10 mM HEPES, pH 7.2, containing 0.5 mM MgCl2, 1 U/mL adenosine deaminase, 0.5 nM ^125I-ABA and 10 μg of membrane protein in a final volume of 100 μL. This phase of the assay was allowed to proceed to equilibrium (>90 minutes) at room temperature. At that point phase 2 was initiated by adding 50 μL of a 0.3 mM solution (0.1 mM final) of a candidate AE or DMSO vehicle to rapidly occupy the allosteric site. Stock solutions of AEs (10 mM) were prepared in DMSO. Five minutes later phase 3 was initiated by the addition of 50 μL of a solution containing 400 μM 8-cyclopentyltheophylline and 200 μM GTPγS. Ten minutes later, residual radioligand bound to Aireceptors was trapped on Whatman GF/C glass fiber filters using a Brandel cell harvester, washed 3 times over a 20 second interval and counted in a γ-counter. The percentage of specifically bound agonist remaining after 10 minutes of dissociation was used to calculate the “score” of AE activity:
AE activity score=100×(B−Bo)/(Beq−Bo)
Where B=residual binding (cpm) bound at the end of 10 minutes of dissociation in the presence of an AE, Bo=residual binding (cpm) at the end of 10 minutes of dissociation in the absence of an AE, and Beq=cpm bound at the end of phase 2. A compound with no AE activity has a score of 0 in this assay. An AE which completely arrests agonist dissociation will have a score of 100.

A1AR = biological target: T2, A1AR (Homo sapiens, UniProt P30542); experiment: A1AR antagonistic activity: competition with equilibrium binding of [3H]CPX; settings: for Antagonist activity, % (% inhibition of specific equilibrium binding of [3H]8-cyclopentyl-1,3-dipropylxanthine): 100 μM, N = 3
T2 sequence (P30542 1-326): T1 sequence (P30542 1-326)
Description: Several of the candidate AEs had substantial antagonistic activity. However, the AE and antagonist activities are unrelated (r^2=0.057, n=28).

| Molecule | AE Score, % (hA1AR) [%] | Antagonist activity, % (% inhibition of specific equilibrium binding of [3H]8-cyclopentyl-1,3-dipropylxanthine) (A1AR) [%] | AE activity (in words) (hA1AR) | antagonist activity (in words) (A1AR; at 100 μM) |
| --- | --- | --- | --- | --- |
| Nc1sccc1C(=O)c1cccc(F)c1 [Compound 3b] | 0 |  |  |  |
| Cc1sc(N)c(C(=O)c2cccc(Br)c2)c1C [Compound 13d] | 16 ± 4 |  |  |  |
| Nc1sc2c(c1C(=O)c1ccccc1)CCCC2 [Compound 20b] | 19 ± 5 | 35 |  |  |
| Nc1sc2c(c1C(=O)c1ccc(Br)cc1)CCC2 [Compound 19g] | 70 ± 7 |  |  |  |
| Cc1sc(N)c(C(=O)c2cccc(-c3ccccc3)c2)c1C [Compound 13g] | 12 ± 1.9 |  |  |  |
| CCOC(=O)c1c(N)sc2c1CCCCC2 [Compound 21a] | 0.3 ± 0.01 | 41 | did not support AE activity; also recorded: None of the cycloalkylthiophenes having a 3-carboxyethyl substituent, namely, 19a, 20a and 21a, was active |  |
| Cc1sc2c(c1C)C(c1cccc(F)c1)=Nc1sc(C)c(C)c1C(c1cccc(F)c1)=N2 [Compound 14, 4,9-bis-(3-fluorophenyl)-2,3,7,8-tetramethyl-1,6-dithia-5,10-diaza-dicyclopenta[a,e]-cyclooctene] |  |  | lacked AE activity |  |
| Nc1sc2c(c1C(=O)c1ccc(F)cc1)CCCCC2 [Compound 21f] | 22 ± 2.7 |  |  |  |
| Nc1sccc1C(=O)c1ccc(Cl)cc1 [Compound 3f] | 0 |  |  |  |
| Nc1sc2c(c1C(=O)c1ccc(F)cc1)CCCC2 [Compound 20f] | 17 ± 3 | 51 |  |  |
| Cc1cccc(C(=O)c2c(N)sc(C)c2C)c1 [Compound 13e] | 18 ± 0.5 |  |  |  |
| Nc1sccc1C(=O)c1ccc(F)cc1 [Compound 3e] | 0 |  |  |  |
| Nc1sc2c(c1C(=O)c1ccccc1)CCCCC2 [Compound 21b] | 13 ± 3.8 | 0 |  |  |
| CCOC(=O)c1c(N)sc2c1CCCC2 [Compound 20a] | 3.5 ± 1.8 | 57 | did not support AE activity; also recorded: None of the cycloalkylthiophenes having a 3-carboxyethyl substituent, namely, 19a, 20a and 21a, was active |  |
| N#Cc1ccc(C(=O)c2c(N)sc3c2CCCC3)cc1 [Compound 20k] | 19 ± 0.9 | 19 | excellent activity |  |
| Cc1ccc(C(=O)c2c(N)sc3c2CCCC3)cc1 [Compound 20j] | 19 ± 7 | 41 |  |  |
| 3-benzoyl-4,5-dimethylthiophene-2-carboxylic acid [Compound 17a] | 0 |  |  |  |
| Nc1sc2c(c1C(=O)c1ccc(Cl)cc1)CCC2 [Compound 19f] | 22 ± 4 | 40 |  |  |
| Nc1sc2c(c1C(=O)c1cccc(Cl)c1)CCC2 [Compound 19c] | 16 ± 2 |  |  |  |
| Nc1sccc1C(=O)c1cccc(Br)c1 [Compound 3d] | 0.2 ± 0.03 |  |  |  |
| Cc1sc(N)c(C(=O)c2cccc(F)c2)c1C [Compound 13b] | 0 |  |  |  |
| Nc1sc2c(c1C(=O)c1ccc(F)cc1)CCC2 [Compound 19e] | 68 ± 1 | 36 |  |  |

| Molecule | AE Score, % (hA1AR) [%] | Antagonist activity, % (% inhibition of specific equilibrium binding of [3H]8-cyclopentyl-1,3-dipropylxanthine) (A1AR) [%] | AE activity (in words) (hA1AR) | antagonist activity (in words) (A1AR; at 100 μM) |
| --- | --- | --- | --- | --- |
| Nc1sc2c(c1C(=O)c1cccc(F)c1)CCCC2 [Compound 20c] | 22 ± 5 | 40 |  |  |
| COc1cccc(C(=O)c2c(N)sc3c2CCCCC3)c1 [Compound 21j] | 99 ± 3.1 | 19 |  |  |
| CCOC(=O)c1c(N)sc2c1CCC2 [Compound 19a] | 0.4 ± 0.1 | 72 | did not support AE activity; also recorded: None of the cycloalkylthiophenes having a 3-carboxyethyl substituent, namely, 19a, 20a and 21a, was active |  |
| Nc1sccc1C(=O)c1ccc(Br)cc1 [Compound 3g] | 0.8 ± 0.3 |  |  |  |
| Nc1sc2c(c1C(=O)c1ccc(-c3ccccc3)cc1)CCC2 [Compound 19h] | 62 ± 5 | 12 |  |  |
| Nc1sc2c(c1C(=O)c1ccc(Br)cc1)CCCC2 [Compound 20h] | 83 ± 5 | 56 |  |  |
| Nc1sccc1C(=O)c1ccc2ccccc2c1 [Compound 3i] | 3.2 ± 1.8 |  |  |  |
| Nc1sc2c(c1C(=O)c1cccc(I)c1)CCCCC2 [Compound 21e] | 86 ± 9 |  |  |  |
| Nc1sc2c(c1C(=O)c1cccc(Br)c1)CCCCC2 [Compound 21d] | 78 ± 2.6 | 12 |  |  |
| Cc1cc(C)c(C(=O)c2c(N)sc(C)c2C)c(C)c1 [Compound 13h] | 0 |  |  |  |
| Nc1sc2c(c1C(=O)c1ccc(Br)cc1)CCCCC2 [Compound 21h] | 86 ± 3.8 | 12 | very high AE activity | nearly devoid of antagonist activity |
| Nc1sc2c(c1C(=O)c1cccc(Br)c1)CCCC2 [Compound 20e] | 49 ± 1 |  |  |  |
| Cc1sc(C(=O)O)c(C(=O)c2cccc(C(F)(F)F)c2)c1C [Compound 17b] | 0 |  |  |  |
| Nc1sccc1C(=O)c1ccc(Cl)c(Cl)c1 [Compound 3h] | 1.7 ± 0.8 |  |  |  |
| COc1ccc(C(=O)c2c(N)sc3c2CCCCC3)cc1 [Compound 21k] | 85 ± 10 |  |  |  |
| Nc1sc2c(c1C(=O)c1ccc(Cl)cc1)CCCCC2 [Compound 21g] | 65 ± 6.7 |  |  |  |
| Nc1sccc1C(=O)c1cccc(Cl)c1 [Compound 3c] | 0 |  |  |  |
| Cc1sc(C(=O)O)c(C(=O)c2ccc(-c3ccccc3)cc2)c1C [Compound 17c] | 0 |  |  |  |
| Cc1sc(N)c(C(=O)c2cccc(Cl)c2)c1C [Compound 13c] | 14 ± 1 |  |  |  |
| Cc1sc(N)c(C(=O)c2ccccc2)c1C [Compound 13a, (2-amino-4,5-dimethyl-thiophen-3-yl)(phenyl)methanone] | 9 |  |  |  |
| Nc1sc2c(c1C(=O)c1ccc3ccccc3c1)CCCC2 [Compound 20n] | 86 ± 1 |  |  |  |
